Experimental findings from ChEMBL document CHEMBL4613253, “Effective Application of Metabolite Profiling in Drug Design and Discovery” (J Med Chem, 2020) are described below.

Broadly, the AUC(0-inf) is the area under the concentration-time curve extrapolated to infinity. In general, IC50 refers to the point on the concentration scale where inhibition reaches its midpoint. A word on the EC50: it is the concentration that produces a half-maximal response. In general, fraction unbound refers to the share of the substance not bound to proteins or other matrix. For orientation: bioavailability means the share of a dose that reaches the circulation, judged against a reference dose that is usually intravenous.

Series [1] can be described thus: AUC(0 to infinity) in human carrying CYP3A5*3/*3 allele at 300 mg, po measured up to 32 hrs. In kind it is ADME, organism-based. On the set-up: dose 300 mg, route oral, time infinity. The following applies: in vivo.
The nature of series [2]: AUC(0 to infinity) in human carrying CYP3A5*1/*3 allele at 300 mg, po measured up to 32 hrs. In kind it is ADME, organism-based. The arrangement: dose 300 mg, route oral, time infinity. Conditions: in vivo.
Series [3] in a line: AUC(0 to infinity) in human carrying CYP3A5*1/*1 allele at 300 mg, po measured up to 32 hrs. It is filed as ADME, organism-based. On the set-up: dose 300 mg, route oral, time infinity. Conditions: in vivo.
Series [4] in a line: Drug metabolism in human liver microsomes assessed as peak area for GSH-EE-quinone conjugate formation at 10 uM measured after 60 mins in presence of NADPH by LC-MS/MS analysis. It is filed as ADME, Microsome. Conditions: 1 h. (Liver microsomes are vesicles of endoplasmic reticulum, rich in cytochrome P450 enzymes.)
For series [5], the target named is cGMP-dependent 3',5'-cyclic phosphodiesterase (Homo sapiens, UniProt O00408). The series can be described thus: Inhibition of PDE2 (unknown origin).
cGMP-dependent 3',5'-cyclic phosphodiesterase, sequence (O00408 whole entry): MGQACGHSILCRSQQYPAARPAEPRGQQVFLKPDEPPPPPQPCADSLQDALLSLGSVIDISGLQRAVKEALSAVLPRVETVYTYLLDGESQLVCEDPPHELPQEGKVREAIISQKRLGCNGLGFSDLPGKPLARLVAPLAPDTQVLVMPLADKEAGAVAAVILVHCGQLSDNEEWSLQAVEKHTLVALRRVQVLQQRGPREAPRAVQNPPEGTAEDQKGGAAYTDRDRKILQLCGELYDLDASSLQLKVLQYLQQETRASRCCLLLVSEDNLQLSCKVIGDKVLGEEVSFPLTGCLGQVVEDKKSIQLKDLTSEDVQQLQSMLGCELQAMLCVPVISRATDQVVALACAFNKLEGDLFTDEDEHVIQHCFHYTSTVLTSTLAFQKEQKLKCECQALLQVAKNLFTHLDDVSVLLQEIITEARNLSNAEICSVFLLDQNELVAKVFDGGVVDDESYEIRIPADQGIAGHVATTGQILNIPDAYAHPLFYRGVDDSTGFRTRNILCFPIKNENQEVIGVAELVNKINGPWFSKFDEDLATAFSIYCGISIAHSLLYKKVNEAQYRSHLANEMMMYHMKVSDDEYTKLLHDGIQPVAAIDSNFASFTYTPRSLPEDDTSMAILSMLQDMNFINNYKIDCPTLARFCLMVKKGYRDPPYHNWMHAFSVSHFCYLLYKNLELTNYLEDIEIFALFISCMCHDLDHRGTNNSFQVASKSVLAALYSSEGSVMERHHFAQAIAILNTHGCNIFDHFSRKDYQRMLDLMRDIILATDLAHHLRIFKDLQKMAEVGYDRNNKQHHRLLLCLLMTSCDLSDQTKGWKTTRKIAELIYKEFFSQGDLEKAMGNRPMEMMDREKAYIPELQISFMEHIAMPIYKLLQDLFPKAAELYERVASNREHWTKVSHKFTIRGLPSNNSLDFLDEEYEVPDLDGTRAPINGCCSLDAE
A short description of series [6]: Half life in human plasma at 1 uM incubated for 0 to 120 mins by LC-MS/MS method. It is filed as ADME, cell-free.
Series [7] in a line: Half life in guinea pig plasma at 1 uM incubated for 0 to 120 mins by LC-MS/MS method. It is filed as ADME, cell-free, Cavia porcellus.
Series [8] can be described thus: Half life in rat plasma at 1 uM incubated for 0 to 120 mins by LC-MS/MS method. In kind it is ADME, cell-free.
In series [9] the target is T1, Glucose-dependent insulinotropic receptor (Homo sapiens, UniProt Q8TDV5).
T1 sequence (Q8TDV5 whole entry): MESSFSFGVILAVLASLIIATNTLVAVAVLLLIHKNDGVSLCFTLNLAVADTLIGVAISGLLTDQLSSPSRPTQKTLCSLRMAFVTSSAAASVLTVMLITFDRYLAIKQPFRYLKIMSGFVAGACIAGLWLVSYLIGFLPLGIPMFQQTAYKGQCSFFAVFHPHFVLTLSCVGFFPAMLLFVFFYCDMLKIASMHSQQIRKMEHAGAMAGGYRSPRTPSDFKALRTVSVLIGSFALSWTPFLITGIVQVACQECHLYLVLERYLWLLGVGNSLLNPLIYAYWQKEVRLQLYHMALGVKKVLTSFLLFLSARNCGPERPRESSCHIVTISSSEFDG
Description: Agonist activity at human GPR119 expressed in HEK293 cells preincubated for 30 mins followed by d2 cAMP addition and measured after 60 mins by HTRF assay. It is filed as functional, cell-based.

The nature of series [10]: Protein binding in po or iv dosed rat plasma assessed as free fraction. It is filed as ADME, organism-based.
Series [11] can be described thus: Plasma clearance in po or iv dosed rat plasma. It is filed as ADME, organism-based.
Series [12] in a line: Volume of distribution at steady state in po or iv dosed rat. The following applies: in vivo, read-out: Vdss. It is filed as ADME, organism-based.
A short description of series [13]: Elimination half life in po or iv dosed rat. It is filed as ADME, organism-based. Conditions: in vivo, read-out: beta t1/2 (converted).
The nature of series [14]: Oral bioavailability in rat. The following applies: in vivo. In kind it is ADME, organism-based.
A short description of series [15]: Half life in rat liver microsomes at 1 uM measured up to 60 mins by LC-MS/MS analysis. In kind it is ADME, Microsome.
Series [16] is described as follows: Half life in dog liver microsomes at 1 uM measured up to 60 mins by LC-MS/MS analysis. It is filed as ADME, Canis lupus familiaris, Microsome.
Series [17] is described as follows: Half life in human liver microsomes at 1 uM measured up to 60 mins by LC-MS/MS analysis. It is filed as ADME, Microsome.
The nature of series [18]: Plasma clearance in Wistar-Han rat at 1 mg/kg, iv measured up to 24 hrs by LC-MS/MS analysis. It is filed as ADME, organism-based.
A short description of series [19]: Plasma clearance in Beagle dog at 1 mg/kg, iv measured up to 24 hrs by LC-MS/MS analysis. It is filed as ADME, organism-based, Canis lupus familiaris.
Series [20] in a line: Half life in dog plasma at 1 uM incubated for 0 to 120 mins by LC-MS/MS method. In kind it is ADME, cell-free, Canis lupus familiaris.
A short description of series [21]: Half life in monkey plasma at 1 uM incubated for 0 to 120 mins by LC-MS/MS method. In kind it is ADME, cell-free, Macaca mulatta. Conditions: rhesus monkey.

Structures are written as SMILES.

Regarding `Cc1nnc(C(C)C)n1[C@@H]1C[C@H]2CC[C@@H](C1)N2CC[C@H](NC(=O)C1CCC(F)(F)CC1)c1ccccc1` [MARAVIROC], the total exposure AUC(0-inf) in series [1] was found to be 2100 ng·h/mL; in [2] it was 1760 ng·h/mL; in series [3] it was 1240 ng·h/mL.
For the molecule `C[C@H](Cc1ccccc1)n1c(-c2ccccc2O)nc2ccnc(C(F)(F)F)c2c1=O`, the Activity in series [4] is listed as 166810.
`CC(O)c1ccc(-c2c(-c3nn(C)c4ncnc(N5CCC5)c34)cnn2C)cc1` (centres undefined) showed an IC50 in series [5] of 42 nM.
For the molecule `Cc1cc(-c2ccc(N3CCC(c4nc(C(C)C)no4)CC3)nc2)c(C#N)cc1C#N`, the half-life at 1 µM in series [6], in series [7] and in series [8] was over 6.17 h each time. This molecule also gave a 50% effective concentration (EC50) in series [9] of 1.7 nM. The fraction unbound in series [10] was determined as 0.03. In series [11], this molecule registered a clearance of 13.4 mL/min/kg. In addition, in series [12], the Vd was determined as 3 L/kg. Besides, in series [13], the half-life is 2.6 h. Also, the bioavailability in [14] stood at 70%.
In the case of `C[C@H](Cc1ccc(F)c(F)c1)n1c(-c2ncccc2O)nc2ccnc(C(F)(F)F)c2c1=O`, in series [4], the Activity came out at 3000.
For `COc1ccc(-c2cc(=O)[nH]c(=S)n2CCO)c(OC)c1`, the half-life at 1 µM in [15] is 8.6 min; in series [16] it was 0.187 h; in series [17] it was over 2 h. The clearance in [18] came to 73 mL/min/kg; in series [19], 12 mL/min/kg.
Take `CC(C)OC(=O)N1CCN(c2ncc(-c3ccc4nccnc4c3)cc2C#N)CC1`: the half-life at 1 µM in series [6], in [20] and in [21] was over 6.17 h throughout.
The molecule `CCc1ccc(-c2c(-c3nn(C)c4ncnc(N5CC(O)C5)c34)cnn2C)cc1` came in with a 50% inhibitory concentration (IC50) in series [5] of 10 nM.
